Values belong to the molecule of their own block, whether it stands above or below them.
Legend:
[1] = Release of crystal violet from single outlet port devices of 200, 400 and 600 microns inside diameter (incubator, UV-Vis); assay type: physicochemical; conditions: one outlet port devices, 200, 400, 600 microns inside diameter, 3.0 ml PBS pH 7.37, 37° C., 7 days
Method: Drug delivery devices were made having one outlet port and one sealed end. […] Three different variation of devices were prepared with different inside diameters, as in 200, 400, and 600 microns. Four devices of each type were subjected to release studies as described in Example I. Single passageway tubes were placed in micro vials containing 3.0 ml of phosphate buffered saline (0.01 M phosphate, pH 7.37). The vials were placed in an incubator maintained at 37° C. for the entire duration of study. The buffer was changed every 24 hours, sampled, and analyzed for the amount of crystal violet released using a UV-Vis Spectrophotometer for seven (7) days.

[2] = Release of crystal violet from impermeable polyimide tube delivery devices into phosphate buffered saline (USP Disintegration Apparatus, UV-Vis); assay type: physicochemical; conditions: single outlet port device
[3] = as above; assay type: physicochemical; conditions: for linearity of release: 28 days; for total duration of release, percentage release extrapolated to 100%: PBS pH 7.37, 37° C., 28 days data
Method: Lengths of polyimide tubes were provided having a length of 20 mm and a diameter of 125 microns. At the centre of each tube, a passageway with a diameter of 30 microns was made using standard chemical procedures.
Seven (7) tubes having the optimal passageways were selected and loaded with a concentrated solution of crystal violet in ethanol by capillary method. The tubes were then allowed to stand for 24 hours at room temperature to evaporate alcohol from the tubes, such that the tube is tightly packed with a solid crystal violet composition.
After taking an initial weight measurement, an average amount of 126 micrograms of crystal violet was estimated inside the tubes. The ends of the tubes were sealed with a bioglue and dried.
Single passageway tubes made according to Example I were placed in microvials containing 0.26 ml of phosphate buffered saline (0.01 M phosphate, pH 7.37). The vials were placed in a USP Disintegration Apparatus having dip rate of 30-32 dips per minute. The apparatus was connected to a waterbath maintained at 37° C. for the entire duration of study. The buffer was changed every 48 hours, sampled, and analyzed for the amount of crystal violet released using a UV-Vis Spectrophotometer for 28 days.
Several drug delivery devices were constructed in accordance with in Example I except that two passageways were made located equidistant from the tube centre. The optimal seven (7) were selected and loaded with crystal violet in accordance with Example I.
Several drug delivery devices were constructed in accordance with Example I except that three passageways were made located equidistant from each end of the tube. The optimal seven (7) were selected and loaded with crystal violet in accordance with Example I.
Seven (7) lengths of polyimide tubes were provided having a length of 20 mm and a diameter of 125 microns. The tubes were then loaded with a concentrated solution of crystal violet in ethanol by capillary method. The tubes were then allowed to stand for 24 hours at room temperature to evaporate alcohol from the tubes, such that the tube is tightly packed with a solid crystal violet composition. One end of the tube was sealed with a bioglue while the other end was left open.
A drug delivery device made in accordance with Example VIII was subjected to release studies as described in Example II. […] The percentage release when extrapolated to 100% corresponds to the total duration of release of approximately 2 years.

[4] = intravenous, AIDS patients with CMV retinitis; cited from earlier work
[5] = continuous release for seven days, glaucoma; cited from earlier work

- linearity of release [1]: significant linearity of release
- linearity of release ([2]; 5 days): significant linearity of release
- total duration of release, percentage release extrapolated to 100% ([2]; no surface passageways, one open end, 5 days data): approximately 2 years
- amount released relative to single passageway device ([3]; double passageway device): two-fold
- linearity of release ([3]; double passageway device): significant linear agent release
- total duration of release, percentage release extrapolated to 100% ([3]; double passageway device): approximately 22 years
- total duration of release, percentage release extrapolated to 100% ([3]; single passageway device (30 micron passageway, 20 mm x 125 micron tube)): approximately 43 years
- linearity of release ([3]; single passageway device): significant linearity of release
- amount released relative to single passageway device ([3]; triple passageway device): three-fold
- linearity of release ([3]; triple passageway device): significant linear agent release
- total duration of release, percentage release extrapolated to 100% ([3]; triple passageway device): approximately 15 years
Structure (SMILES): CN(C)c1ccc(C(=C2C=CC(=[N+](C)C)C=C2)c2ccc(N(C)C)cc2)cc1 [crystal violet]

Structure (SMILES): Nc1nc(O)c2ncn(COC(CO)CO)c2n1 [Ganciclovir]
- patients experiencing bone marrow toxicity resulting in neutropenia (neutrophil count <1000) [4]: 30-50%

Structure (SMILES): CC[C@@H]1C(=O)OC[C@@H]1Cc1cncn1C [pilocarpine]
- release rate from ocular insert [5]: 20 to 40 µg/h
